Values quoted from earlier work in patent US12023346B1, “Compositions and methods for treating epilepsy” (POVIVA CORP, priority 2023, dated 2024).
Like-named read-outs stand apart in the source and are kept apart here.

C=C(C)[C@@H]1CCC(C)=C[C@H]1c1c(O)cc(CCCCC)cc1O [Cannabidiol, 2-[(1R,6R)-6-Isopropenyl-3-methylcyclohex-2-en-1-yl]-5-pentylbenzene-1,3-diol]
Plasma concentration on Day 22 at target CBD dose, 5 hours, Mean (SD) (5 mg/kg/day (N = 10)): 72.1 (49.0) ng/mL
Plasma concentration on Day 22 at target CBD dose, […], Mean (SD) (5 mg/kg/day (N = 10)): 130 (170) ng/mL
Plasma concentration on Day 1 at starting CBD dose, 5 hours, Mean (SD) (5 mg/kg/day group (N = 10)): 10.0 (5.74) ng/ml
Plasma concentration on Day 1 at starting CBD dose, Pre-dose, Mean (SD) (5 mg/kg/day group (N = 10)): 0 ng/mL
Plasma concentration on Day 1 at starting CBD dose, […], Mean (SD) (5 mg/kg/day group (N = 10)): 37.6 (53.7) ng/ml
Plasma concentration on Day 22 at target CBD dose, 5 hours, Mean (SD) (10 mg/kg/day (N = 8)): 288 (345) ng/mL
Plasma concentration on Day 22 at target CBD dose, […], Mean (SD) (10 mg/kg/day (N = 8)): 242 (159) ng/mL
Plasma concentration on Day 1 at starting CBD dose, 5 hours, Mean (SD) (10 mg/kg/day group (N = 8)): 11.3 (11.7) ng/ml
Plasma concentration on Day 1 at starting CBD dose, Pre-dose, Mean (SD) (10 mg/kg/day group (N = 8)): 0 ng/mL
Plasma concentration on Day 1 at starting CBD dose, […], Mean (SD) (10 mg/kg/day group (N = 8)): 34.4 (32.1) ng/ml
Plasma concentration on Day 22 at target CBD dose, 5 hours, Mean (SD) (20 mg/kg/day (N = 9)): 308 (321) ng/mL
Plasma concentration on Day 22 at target CBD dose, […], Mean (SD) (20 mg/kg/day (N = 9)): 380 (370) ng/mL
Plasma concentration on Day 1 at starting CBD dose, 5 hours, Mean (SD) (20 mg/kg/day group (N = 9)): 25.3 (42.4) ng/ml
Plasma concentration on Day 1 at starting CBD dose, Pre-dose, Mean (SD) (20 mg/kg/day group (N = 9)): 0 ng/mL
Plasma concentration on Day 1 at starting CBD dose, […], Mean (SD) (20 mg/kg/day group (N = 9)): 29.3 (28.5) ng/ml
